This note sets out measurements from patent publication US10501459B2, “Substituted imidazo[1,2-a]pyridines as bromodomain inhibitors” (NEOMED Institute, priority 2015, dated 2019).

Structures are written as SMILES.

For orientation: IC50 means the midpoint of a concentration-inhibition curve. A low value points to higher potency.

In one assay the test system is human C-Myc gene transcription in MV-4-11 cells. In words: Transcription of human C-Myc in human leukemic MV-4-11 cells (QuantiGene 2.0). Conditions: Homo sapiens, MV4-11, 4 h, inhibition of C-Myc mRNA, 4 hours treatment. The format is cell-based. On the procedure: b) Transcription of Human C-Myc in Human Leukemic MV-4-11 Cells:
The effect of compounds on transcription of human C-Myc gene is monitored in human B-myelomonocytic leukemia cell line MV-4-11 (from American Type Culture Collection (ATCC), Manassas, Va., USA) using QuantiGene 2.0 assay kit (Affymetrix, Santa Clara, Calif., USA).
Typically, 8,000 MV-4-11 cells are plated in sterile 96-well plates (Costar #3598 from Fisher Scientific Canada, Ottawa, Ontario, Canada) in Iscove's medium supplemented with 10% fetal bovine serum, glutamine (2 mM), and penicillin (100 I.U.) and streptomycin (100 μg/mL) (all from Wisent Inc., St. Bruno, Quebec, Canada). Compounds are dissolved in DMSO at 30 mM. A series of 1:3 dilutions are first made in DMSO, and further […] dilutions are made in serum-containing cell culture media. The final concentration of DMSO is […] in cell culture media. After cells are treated with various concentrations of test compound for 4 hours, cells are lysed using Quantigene 2.0 sample processing kit (#QS0100). C-Myc mRNA is detected using a QuantiGene 2.0 assay kit (#QS0009) with gene-specific probe to human C-Myc (#SA-50182) following the manufacturer's recommendations. Luminescene signals are read on Flexstation II microplate reader (Molecular Devices, Sunnyvale, Calif., USA). Percentage of inhibition of C-Myc transcription is analyzed using EXCEL (2010 version).
As for `Cc1cc(-c2ccc3ncc(S(=O)(=O)N(C)C4CCOC4)n3c2)cn(C)c1=O` (single isomer, unassigned) [Compound 47, 6-(1,5-dimethyl-6-oxo-1,6-dihydropyridin-3-yl)-N-methyl-N-(tetrahydrofuran-3-yl)imidazo[1,2-a]pyridine-3-sulfonamide], the IC50 was found to be 0.731 µM.

As to `Cc1cc(-c2ccc3ncc(S(=O)(=O)NC4CCOC4)n3c2)cn(C)c1=O` (single isomer, unassigned) [Compound 52, 6-(1,5-dimethyl-6-oxo-1,6-dihydropyridin-3-yl)-N-(tetrahydrofuran-3-yl) imidazo[1,2-a]pyridine-3-sulfonamide], the IC50 came to 0.891 µM.

Consider `COC(c1ccccc1)c1cnc2ccc(-c3cc(C)c(=O)n(C)c3)cn12` (stereo not drawn) [Compound 7, 5-[3-[methoxy(phenyl)methyl]imidazo[1,2-a]pyridin-6-yl]-1,3-dimethyl-pyridin-2-one], for which it took 0.0928 µM to reach half-maximal inhibition (IC50).

`Cc1cc(-c2ccc3ncc(C(=O)N4CCOCC4)n3c2)cn(C)c1=O` [Compound 11, 1,3-dimethyl-5-(3-(morpholine-4-carbonyl)imidazo[1,2-a]pyridin-6-yl) pyridin-2(1H)-one] displayed an IC50 of 2.73 µM.

`Cc1cc(-c2ccc3ncc(C(=O)NC4CCCCC4)n3c2)cn(C)c1=O` [Compound 12, N-cyclohexyl-6-(1,5-dimethyl-6-oxo-1,6-dihydropyridin-3-yl)imidazo[1,2-a] pyridine-3-carboxamide] registered an IC50 of 0.912 µM.

Compound `Cc1cc(-c2ccc3ncc(C(=O)N4CCCCC4)n3c2)cn(C)c1=O` [Compound 13, 1,3-dimethyl-5-(3-(piperidine-1-carbonyl)imidazo[1,2-a]pyridin-6-yl)pyridin-2(1H)-one] yielded an IC50 of 2.66 µM.

Consider `Cc1cc(-c2ccc3ncc(S(=O)(=O)N4CCCCC4)n3c2)cn(C)c1=O` [Compound 14, 1,3-dimethyl-5-(3-(piperidin-1-ylsulfonyl)imidazo[1,2-a]pyridin-6-yl)pyridin-2(1H)-one], for which inhibition was half-maximal at 0.508 µM (IC50).

Consider `CCNS(=O)(=O)c1cnc2ccc(-c3cc(C)c(=O)n(C)c3)cn12` [Compound 15, 6-(1,5-dimethyl-6-oxo-1,6-dihydropyridin-3-yl)-N-ethylimidazo[1,2-a] pyridine-3-sulfonamide], for which the IC50 was found to be 2.52 µM.

`Cc1cc(-c2ccc3ncc(S(=O)(=O)NC4CCCC4)n3c2)cn(C)c1=O` [Compound 16, N-cyclopentyl-6-(1,5-dimethyl-6-oxo-1,6-dihydropyridin-3-yl)imidazo[1,2-a]pyridine-3-sulfonamide] displayed an IC50 of 0.0813 µM.

Regarding `Cc1cc(-c2ccc3ncc(S(=O)(=O)NC(C)C)n3c2)cn(C)c1=O` [Compound 17, 6-(1,5-dimethyl-6-oxo-1,6-dihydropyridin-3-yl)-N-isopropylimidazo [1,2-a] pyridine-3-sulfonamide], the IC50 came to 0.758 µM.

In turn, `Cc1cc(-c2ccc3ncc(S(=O)(=O)NC4CCCCC4)n3c2)cn(C)c1=O` [Compound 18, N-cyclohexyl-6-(1,5-dimethyl-6-oxo-1,6-dihydropyridin-3-yl)imidazo[1,2-a]pyridine-3-sulfonamide] registered an IC50 of 0.0937 µM.

`Cc1cc(-c2ccc3ncc(S(=O)(=O)N4CCCC4)n3c2)cn(C)c1=O` [Compound 19, 1,3-dimethyl-5-(3-(pyrrolidin-1-ylsulfonyl)imidazo[1,2-a]pyridin-6-yl)pyridin-2(1H)-one] returned a 50% inhibitory concentration (IC50) of 0.17 µM.

The compound `Cc1cc(-c2ccc3ncc(CN4CCC(F)(F)CC4)n3c2)cn(C)c1=O` [Compound 20, 5-[3-[(4,4-difluoro-1-piperidyl)methyl]imidazo[1,2-a]pyridin-6-yl]-1,3-dimethyl-pyridin-2-one] gave a half-maximal inhibitory concentration (IC50) of 0.112 µM.

`Cc1cc(-c2ccc3ncc(CN4CCOCC4)n3c2)cn(C)c1=O` [Compound 21, 1,3-dimethyl-5-[3-(morpholinomethyl)imidazo[1,2-a]pyridin-6-yl]pyridin-2-one] registered an IC50 of 0.816 µM.

`Cc1cc(-c2ccc3ncc(NC4CCCC4)n3c2)cn(C)c1=O` [Compound 22, 5-[3-(cyclopentylamino)imidazo[1,2-a]pyridin-6-yl]-1,3-dimethyl-pyridin-2-one]: it took 0.0098 µM to reach half-maximal inhibition (IC50).

The compound `Cc1cc(-c2ccc3ncc(NCC4CCCC4)n3c2)cn(C)c1=O` [Compound 23, 5-[3-(cyclopentylmethylamino)imidazo[1,2-a]pyridin-6-yl]-1,3-dimethyl-pyridin-2-one] registered an IC50 of 0.0165 µM.

The compound `Cc1nc2ccc(-c3cc(C)c(=O)n(C)c3)cn2c1Cc1ccccc1` [Compound 24, 5-(3-benzyl-2-methyl-imidazo[1,2-a]pyridin-6-yl)-1,3-dimethyl-pyridin-2-one] showed an IC50 of 0.0322 µM.

Compound `Cc1cc(-c2ccc3ncc(COC4CCC4)n3c2)cn(C)c1=O` [Compound 25, 5-[3-(cyclobutoxymethyl)imidazo[1,2-a]pyridin-6-yl]-1,3-dimethyl-pyridin-2-one] returned an IC50 of 0.174 µM.

As to `Cc1cc(-c2ccc3ncc(CN4CCCCC4=O)n3c2)cn(C)c1=O` [Compound 26, 1,3-dimethyl-5-[3-[(2-oxo-1-piperidyl)methyl]imidazo[1,2-a]pyridin-6-yl]pyridin-2-one], the IC50 amounted to 0.492 µM.

As to `Cc1cc(-c2ccc3ncc(Nc4ccccc4)n3c2)cn(C)c1=O` [Compound 30, 5-(3-anilinoimidazo[1,2-a]pyridin-6-yl)-1,3-dimethyl-pyridin-2-one], the IC50 worked out at 0.0249 µM.

`Cc1cc(-c2ccc3ncc(COCC(F)(F)F)n3c2)cn(C)c1=O` [Compound 34, 1,3-dimethyl-5-[3-(2,2,2-trifluoroethoxymethyl)imidazo[1,2-a]pyridin-6-yl]pyridin-2-one]: the IC50 is 0.234 µM.

Compound `Cc1cc(-c2ccc3ncc(S(=O)(=O)NC4CCOCC4)n3c2)cn(C)c1=O` [Compound 42, 6-(1,5-dimethyl-6-oxo-1,6-dihydropyridin-3-yl)-N-(tetrahydro-2H-pyran-4-yl)imidazo[1,2-a]pyridine-3-sulfonamide] registered an IC50 of 0.865 µM.

Compound `Cc1cc(-c2ccc3ncc(S(=O)(=O)N4CCC[C@H]4C)n3c2)cn(C)c1=O` [Compound 45, (R)-1,3-dimethyl-5-(3-((2-methylpyrrolidin-1-yl)sulfonyl)imidazo[1,2-a]pyridin-6-yl)pyridin-2(1H)-one] had an IC50 of 0.507 µM.

In the case of `Cc1cc(-c2ccc3ncc(S(=O)(=O)N4CCC[C@@H]4C)n3c2)cn(C)c1=O` [Compound 46, (S)-1,3-dimethyl-5-(3-((2-methylpyrrolidin-1-yl)sulfonyl)imidazo[1,2-a]pyridin-6-yl)pyridin-2(1H)-one], it took 0.178 µM to reach half-maximal inhibition (IC50).

As to `Cc1cc(-c2ccc3ncc(S(=O)(=O)C4CCCC4)n3c2)cn(C)c1=O` [Compound 49, 5-(3-(cyclopentylsulfonyl)imidazo[1,2-a]pyridin-6-yl)-1,3-dimethylpyridin-2(1H)-one], the IC50 is 0.851 µM.

`CO[C@H]1CCN(S(=O)(=O)c2cnc3ccc(-c4cc(C)c(=O)n(C)c4)cn23)C1` [Compound 50, (S)-5-(3-((3-methoxypyrrolidin-1-yl)sulfonyl)imidazo[1,2-a]pyridin-6-yl)-1,3-dimethylpyridin-2(1H)-one] gave an IC50 of 2.37 µM.

For `CO[C@@H]1CCN(S(=O)(=O)c2cnc3ccc(-c4cc(C)c(=O)n(C)c4)cn23)C1` [Compound 51, (R)-5-(3-((3-methoxypyrrolidin-1-yl)sulfonyl)imidazo [1,2-a]pyridin-6-yl)-1,3-dimethylpyridin-2(1H)-one], the IC50 amounted to 0.615 µM.

On to `Cc1nc2ccc(-c3cc(C)c(=O)n(C)c3)cn2c1Cc1ccccn1` [Compound 54, 1,3-dimethyl-5-[2-methyl-3-(2-pyridylmethyl)imidazo[1,2-a]pyridin-6-yl] pyridin-2-one], for which the IC50 was determined as 0.151 µM.

The same assay, now with this note: inhibition of C-Myc mRNA, 4 hours treatment.
`Cc1cc(-c2ccc3ncc(S(=O)(=O)N(C)C4CCOC4)n3c2)cn(C)c1=O` (single isomer, unassigned) [Compound 48, 6-(1,5-dimethyl-6-oxo-1,6-dihydropyridin-3-yl)-N-methyl-N-(tetrahydrofuran-3-yl)imidazo[1,2-a]pyridine-3-sulfonamide] displayed an IC50 of 0.537 µM.

Compound `Cc1cc(-c2ccc3ncc(S(=O)(=O)NC4CCOC4)n3c2)cn(C)c1=O` (single isomer, unassigned) [Compound 53, 6-(1,5-dimethyl-6-oxo-1,6-dihydropyridin-3-yl)-N-(tetrahydrofuran-3-yl) imidazo[1,2-a]pyridine-3-sulfonamide] displayed an IC50 of 0.898 µM.

Take `COC(c1ccccc1)c1cnc2ccc(-c3cc(C)c(=O)n(C)c3)cn12` (stereo not drawn) [Compound 6, 5-[3-[methoxy(phenyl)methyl]imidazo[1,2-a]pyridin-6-yl]-1,3-dimethyl-pyridin-2-one]: the IC50 stood at 0.0913 µM.

`Cc1cc(-c2ccc3ncc(S(=O)(=O)NC4CCCOC4)n3c2)cn(C)c1=O` (stereo not drawn) [Compound 43, 6-(1,5-dimethyl-6-oxo-1,6-dihydropyridin-3-yl)-N-(tetrahydro-2H-pyran-3-yl)imidazo[1,2-a]pyridine-3-sulfonamide] came in with an IC50 of 0.253 µM.

Regarding `Cc1cc(-c2ccc3ncc(S(=O)(=O)NC4CCCOC4)n3c2)cn(C)c1=O` (stereo not drawn) [Compound 44, 6-(1,5-dimethyl-6-oxo-1,6-dihydropyridin-3-yl)-N-(tetrahydro-2H-pyran-3-yl)imidazo[1,2-a]pyridine-3-sulfonamide], the IC50 was found to be 0.597 µM.
